This note sets out measurements from patent US20240059685A1, “PIEZO1 AGONISTS FOR THE PROMOTION OF BONE FORMATION” (BIOVENTURES, LLC, priority 2019, published 2024).

In the data set the test system is C57BL/6J mice. As to the kind of experiment: In vivo bone mass evaluation by μCT and body weight after 2 weeks of administration. Particulars: 4-month-old female C57BL/6J mice, 5 μmol/kg intraperitoneally, 5 days per week for 2 weeks. The protocol:
To quantify cancellous bone formation, we injected mice with calcein (20 mg/kg body weight) intraperitoneally 7 and 3 days before harvest. To quantify periosteal and endocortical bone formation, we injected mice with calcein (20 mg/kg body weight) and Alizarin Red (20 mg/kg body weight) 10 and 3 days before harvest. For gene expression, we injected Yoda1 into 4-month-old female C57BL/6J mice one time and harvested tibiae 4 hours later for RNA extraction. For bone mass evaluation, we injected Yoda1 into 4-month-old female C57BL/6J mice 5 consecutive days per week for 2 weeks (day 1-5 and day 8-12) and harvested the mice at day 15 for analysis. Yoda1 (Sigma, St. Louis, MO) was dissolved in DMSO at 40 mM as a stock, diluted in 5% ethanol, and injected intraperitoneally at 5 μmol/kg body weight. Mice were rank-ordered by body weight and then assigned to Veh or Yoda1 groups to give identical group means. All investigators involved in data collection were blinded as to the genotype and group of the mice.
Skeletal analysis. Tibial X-rays were obtained using an UltraFocus X-ray machine (Faxitron Bioptics, Tucson, Arizona) and BMD of the lumbar spine and femur were measured by dual-energy X-ray absorptiometry using a PIXImus Densitometer (GE-Lunar Corp.) Three dimensional bone volume and architecture of L4 vertebra, femur, and tibia were measured by μCT (model μCT40, Scanco Medical, Wayne, PA). The femur, vertebrae (L4), or tibia, were cleaned of soft tissues and fixed in 10% Millonig's formalin for 24 hours. Bone were then gradually dehydrated into 100% ethanol. Bone samples were loaded into a 12.3 mm diameter scanning tube and images acquired in the μCT40. The scans were integrated into 3D voxel images (1024×1024 pixel matrices for each individual planar stack) and a Gaussian filter (sigma=0.8, support=1) was used to reduce signal noise. Scanco Eval Program v.6.0 was used for measuring bone volume. A threshold of 220 mg/cm^3 was applied to all scans at medium resolution (E=55 kVp, I=145 μA, integration time=200 ms) for trabecular bone measurements. The cortical bone and the primary spongiosa were manually excluded from the analysis. Trabecular bone measurements at the distal femur were made on 151 slices beginning 8-10 slices away from the growth plate and proceeding proximally. […] All trabecular measurements were made by drawing contours every 10 to 20 slices and voxel counting was used for bone volume per tissue volume and sphere filling distance transformation indices, without pre-assumptions about the bone shape as a rod or plate for trabecular microarchitecture. Femoral cortical thickness, periosteal circumference, and endocortical circumference were measured at the mid-diaphysis. For tibial cortical thickness, we analyzed 18 slices 5 mm proximal from the distal tibiofibular junction. Vertebral cortical bone thickness was determined on the ventral cortical wall using contours of cross-sectional images, drawn to exclude trabecular bone. Cortical analysis were measured at a threshold of 260 mg/cm^3. Calibration and quality control were performed weekly using five density standards and spatial resolution was verified monthly using a tungsten wire rod. We based beam-hardening correction on the calibration records. Corrections for 200 mg hydroxyapatite were made for all energies.

In the case of `Clc1cccc(Cl)c1CSc1nnc(-c2cnccn2)s1` [Yoda1], the body weight result was “did not alter”, the “cancellous bone mass in the distal femur” value was “increased”, the “cancellous bone volume in vertebrae” value is given as “did not detect changes” and the “cortical thickness in the distal femur” value is reported as “increased”. Further, the “cortical thickness in the vertebra” value is listed as “increased”.
